In one series the test system is TNBC cell line Hs578t. Nature of the series: Cell viability assay (MTS), Hs578t. The settings on record: Homo sapiens, Hs-578T; 72 h incubation. It is filed as cell-based. An excerpt: In an embodiment, for a comparison study, monomers and respective dimers were selected and further evaluated in Hs578t and MDA-MB-468 breast cell lines. […] These cell lines correspond to the basal-like subtype of breast cancer, included in the known triple negative subtype, since they are negative for Estrogen receptor (ER), progesterone receptor (PR) and Human epidermal growth factor receptor 2 (HER2) molecular markers. The clinical behaviour of these breast cancer subtype is very aggressive and there is still no specific molecular therapy available.
In an embodiment, three human breast cancer cell lines Hs578T, MDA-MB-468 and MCF-7, and a normal breast cell line MCF-10A, were obtained from ATCC (American Type Culture Collection). The cancer cell lines were cultured in Dulbecco's modified Eagle medium, 4.5 g/l glucose (DMEM, Gibco) supplemented with 10% heating inactivated Fetal Bovine Serum (FBS, Gibco) and 1% antibiotic solution (Penicillin-Streptomycin, Gibco). The normal cell line was cultured in Dulbecco's Modified Eagle Medium: Nutrient Mixture F-12 (DMEM/F12, Gibco) supplemented with 5% heating inactivated FBS (Gibco), 1% antibiotic solution (Penicillin-Streptomycin, Gibco), 1% steroid hormone (Hydrocortisone, Sigma-Aldrich), 0.1% peptide hormone (Insulin, Sigma-Aldrich) and 0.01% protein complex (Cholera Toxin, Gibco). Two distinct human acute myeloid leukemia (AML) cell lines, HL-60 (FAB M2) and KG-1 (erythroleukemia-FAB M6), and one human lymphoblastic leukemia (ALL) cell line, Jurkat (T cell type), were also used. These three cell lines were obtained from German Collection of Microorganisms and Cell cultures (DMSZ®, Deutsche Sammlung von Mikroorganismen and Zellkulturen in German). Cells were cultured in RPMI 1640 medium (Biochrom®-Merck Millipore) supplemented with 10% heating inactivated FBS (Biochrom®-Merck Millipore) and 1% antibiotic/antimitotic mixture (Invitrogen®). Three human glioblastoma (GBM) cell line models, two established and commercially available cell lines (U87MG and GAMG, kind gift from Rui M. Reis) and one primary GBM culture (GLIB) were also used. GBM cells were cultures in DMEM (Biochrom-Merck Millipore), all supplemented with 10% FBS. The Renal cell carcinoma cell lines A498, 786-O, Caki-2 and HK2 were obtained from ATCC. The cancer cell line A498 was cultured in MEM medium (Biochrom®-Merck Millipore), 786-O was cultured in RPMI 1640 medium (Biochrom®-Merck Millipore), Caki-2 was cultured in Mc Coys medium (Biochrom®-Merck Millipore) and HK2 was cultured in RPMI 1640 medium (Biochrom®-Merck Millipore). All the media were supplemented with 10% heat inactivated FBS (Biochrom®-Merck Millipore) and 1% antibiotic/antimitotic mixture (Invitrogen®). All cells were grown in a humidified incubator at 37° C. and 5% CO2. For all assays, DMSO (Dimethyl Sulfoxide, Sigma-Aldrich) controls were used.
In an embodiment, cell viability assays were performed. MCF-7, Hs578T and MCF-10A cells were plated in triplicate in 96-multiwell culture plates, at 3000 cells […], or 5000 cells […] for MDA-MB-468 (100 μL/well). The cells were then allowed to adhere in complete medium, over a period of 18-20 hours. Cells were subsequently treated with 7 different concentrations (from 0.1 to 40 μM or 5 to 60 μM) of compounds or control in fresh medium. HL-60, KG-1 and Jurkat cell lines were plated in 96-multiwell culture plates at 50.000 cells/100 μL per well and treated with different concentrations (from 0.001 to 2 μM) of the compounds described (or control). Cells were plated, in triplicate, at an initial density of 2000 cells/well for GAMG, 4000 cells/well for GL18 and 6000 cells/well for U87MG, in 96-well plates, and allowed to adhere for 18-20 hours. Cells were then treated with different concentrations of the compounds (0.005 to 100 μM) or with control. […]

Another series deals with Caenorhabditis elegans. Nature of the series: C. elegans food clearance toxicity assay. The following applies: several concentrations up to 150 μM (MC369 75 μM). It counts as in vivo. As for the experimental part: In an embodiment, toxicity assessment of the compounds in vivo was performed using Caenorhabditis elegans (C. elegans) as a model. A food clearance-based assay was performed, in which the bacteria consumption over time is a proxy for worm development, health and fertility (FIG. 11). […] Worms were cultivated for 7 days in liquid media using heat-inactivated bacteria (E. coli OP50) as a food source and in the presence of several concentrations of compounds MC421, MC406, MC369 and MC408, MC409, MC407. The rate of food consumption between days 3-5 was used as an indication for worm development, health and also fertility, as after day 3 the worms' progeny will contribute to the faster decline in food abundance. An example is shown for hypothetical compound X. DMSO 1% and 5% are used as negative and positive controls for toxicity, respectively. For this experiment, the compounds were solubilized in DMSO 1% (vehicle). In an embodiment, Bristol strain N2 (provided by the CGC, funded by the NIH Office of Research Infrastructure Programs—P40 OD010440) was used to test each compound's toxicity based on a food clearance assay using C. elegans. The assay was performed on 96-well plates in liquid culture (Voisine et al. 2007; Teixeira-Castro et al. 2015). Each well, with a final volume of 60 μL, comprised the following: approximately 20 worms in egg stage, OP50 bacteria to a final OD of 0.6-0.8 (595 nm) and each compound at the appropriate concentration. The worms were grown with continuous shaking at 180 rpm/20° C. (Shel lab Si series incubator) for 7 days and the absorbance (OD595) was measured daily on a microplate reader (Tecan Infinite M200). The effect of the compounds on C. elegans physiology was monitored by the rate at which the E. coli food suspension was consumed (FIG. 14). Age-synchronized worm eggs were obtained by “egg prep” as follows: adult worms were treated with an alkaline hypochlorite solution (20% bleach, 25% 1M NaOH) for 6 minutes, thereafter centrifuged and washed in M9 buffer twice. The egg pellet was then re-suspended in S-medium to obtain the appropriate egg concentration before being transferred to 96-well plates. The OP50 bacteria was prepared by inactivating an overnight culture (37° C., 180 rpm, Luria Broth media) with 4 freeze-thaw cycles. Before use, the OP50 was re-suspended in supplemented S-medium (cholesterol, streptomycin, penicillin and nystatin). The compounds were prepared in 100% DMSO (Sigma) and diluted up to a test concentration of 1% DMSO to prevent solvent toxicity. For each compound, several concentrations (150-10 μM) were tested, with the exception of MC369 (75-10 μM) due to solubility issues. For each compound, several concentrations were used and the corresponding OD595 consumption rate (slope) for days 3-5 was calculated. The compounds were tested in worms grown in 96 well plates (PlateLayout.xls, Supporting Information), in two independent experiments. For the statistical analysis, the data from both experiments were pooled together and IBM SPSS was used to apply an ANOVA (Brown-Forsythe robust test of equality of means) followed by the Games-Howell post hoc test to compare the different concentrations used for each compound and 5% DMSO (wt/v) to the control (1% DMSO(wt/v)).

Experimental findings from patent US12391701B2, “Chromene-based compounds, methods and uses thereof” (University of Minho, priority 2019, dated 2025) are described below.

A value given as a limit tells only on which side of the number the result lay.

As to `COc1cccc2c1Oc1nc(-c3ccc(F)cc3)[nH]c1C2` [MC409, 2-(4-fluorophenyl)-5-methoxy-3,9-dihydrochromeno[2,3-d]imidazoles], the IC50 (as a rule, the point on the concentration scale where inhibition reaches its midpoint) in the series on TNBC cell line Hs578t was 270 nM. In addition, in the series with Caenorhabditis elegans, the “rate of food consumption between days 3-5 vs 1% DMSO” value (“rate … vs 1% DMSO” below) was “No statistical differences”.
Turning to `COc1ccc(-c2nc3c([nH]2)Cc2cccc(OC)c2O3)c(Br)c1O` [MC416, 2-bromo-6-methoxy-3-(5-methoxy-3,9-dihydrochromeno[2,3-]imidazol-2-yl)phenol], half-maximal inhibition with TNBC cell line Hs578t (IC50) required 3160 nM.
In the case of `COc1cccc2c1Oc1nc(-c3ccc(Br)cc3)[nH]c1C2` [MC408, 2-(4-bromophenyl)-5-methoxy-3,9-dihydrochromeno[2,3-d]imidazoles], inhibition in the series on TNBC cell line Hs578t was half-maximal at 47 nM (IC50). In addition, the “rate … vs 1% DMSO” value with Caenorhabditis elegans was “No statistical differences”.
`CCOc1ccc(-c2nc3c([nH]2)Cc2cccc(OC)c2O3)cc1` [MC415, 2-(4-ethoxyphenyl)-5-methoxy-3,9-dihydrochromeno[2,3-d]imidazoles]: it took 580 nM to reach half-maximal inhibition in the series with TNBC cell line Hs578t (IC50).
In the series with TNBC cell line Hs578t, `COc1cccc2c1Oc1nc(-c3ccc(Br)cc3)[nH]c1C2C1c2cccc(OC)c2Oc2nc(-c3ccc(Br)cc3)[nH]c21` (stereo not drawn) [MC421, 2,2′-bis(4-bromophenyl)-5,5′-dimethoxy-1,1,9,9′-tetrahydro-9,9′-bichromeno[2,3-]imidazoles] showed a concentration for half-maximal inhibition (IC50) of 35 nM. Besides, in the series on Caenorhabditis elegans, the “rate … vs 1% DMSO” value is “No statistical differences”.
Regarding `COc1cccc2c1Oc1nc(-c3ccccc3F)[nH]c1C2` [MC407, 2-(2-fluorophenyl)-5-methoxy-3,9-dihydrochromeno[2,3-d]imidazoles], in the series with Caenorhabditis elegans, the “rate … vs 1% DMSO” value was “No statistical differences”.
Take `COc1cccc2c1Oc1nc(-c3ccc(F)cc3)[nH]c1C2C1c2cccc(OC)c2Oc2nc(-c3ccc(F)cc3)[nH]c21` (stereo not drawn) [MC406, 2,2′-bis(4-fluorophenyl)-5,5′-dimethoxy-1,1,9,9′-tetrahydro-9,9′-bichromeno[2,3-]imidazoles]: in the series with TNBC cell line Hs578t, the midpoint of inhibition, the IC50, lay at 53 nM. Further, the “rate … vs 1% DMSO” value in the series on Caenorhabditis elegans is on record as “No statistical differences”.
Turning to `COc1cccc2c1Oc1nc(-c3ccc(O)cc3)[nH]c1C2` [MC413, 4-(5-methoxy-3,9-dihydrochromeno[2,3-d]imidazol-2-yl)phenol], in the series on TNBC cell line Hs578t, the IC50 stood at 990 nM.
On to `COc1ccccc1-c1nc2c([nH]1)Cc1cccc(OC)c1O2` [MC411, 5-methoxy-2-(2-methoxyphenyl)-3,9-dihydrochromeno[2,3-]imidazoles], for which the IC50 in the series on TNBC cell line Hs578t came to 8610 nM.
In turn, `COc1cccc2c1Oc1nc(-c3cc(F)cc(F)c3O)[nH]c1C2` [MC410, 2,4-difluoro-6-(5-methoxy-3,9-dihydrochromeno[2,3-d]imidazol-2-yl)phenol] came in with an IC50 in the series on TNBC cell line Hs578t greater than 20000 nM.
Consider `COc1cccc2c1Oc1nc(-c3ccccc3F)[nH]c1C2C1c2cccc(OC)c2Oc2nc(-c3ccccc3F)[nH]c21` (stereo not drawn) [MC369, 2,2′-bis(2-fluorophenyl)-5,5′-dimethoxy-1,1,9,9′-tetrahydro-9,9′-bichromeno[2,3-]imidazoles], for which, in the series on Caenorhabditis elegans, the “rate … vs 1% DMSO” value was “No statistical differences”.
